Target: T1, Human recombinant MMP-13 (Homo sapiens, UniProt P45452)
T1 construct: made in house; host or cells: baculovirus / insect cells
Test: In vitro MMP inhibition analysis (fluorogenic peptide substrate cleavage), Ki
Type: biochemical
Method: Several compounds and salts were analyzed in an in vitro assay to determine their ability to inhibit the MMP cleavage of peptide substrates. Inhibition constant (Ki) were calculated from the assayed compound-MMP interactions.
Human recombinant MMP-1, MMP-2, MMP-9, MMP-13, and MMP-14 were used in this assay. All enzymes were prepared in Assignee's laboratories following usual laboratory procedures. Protocols for the preparation and use of these enzymes are available in the scientific literature. See, e.g., Enzyme Nomenclature (Academic Press, San Diego, Calif., 1992) (and the citations therein). See also, Frije et al., J. Biol. Chem., 26(24), 16766-73 (1994).
The MMP-13 was obtained as a proenzyme from a full-length cDNA clone using baculovirus, as described by V. A. Luckow, “Insect Cell Expression Technology,” Protein Engineering: Principles and Practice, pp. 183-218 (edited by J. L. Cleland et al., Wiley-Liss, Inc., 1996). The expressed proenzyme was first purified over a heparin agarose column, and then over a chelating zinc chloride column. The proenzyme was then activated by APMA for use in the assay. Further details on baculovirus expression systems may be found in, for example, Luckow et al., J. Virol., 67, 4566-79 (1993). See also, O'Reilly et al, Baculovirus Expression Vectors: A Laboratory Manual (W.H. Freeman and Co., New York, N.Y., 1992). See also, King et al., The Baculovirus Expression System: A Laboratory Guide (Chapman & Hall, London, England, 1992).
All MMPs were activated using 4-aminophenylmercuric acetate (“APMA”, Sigma Chemical, St. Louis, Mo.) or trypsin. MMP-9 also was activated using human recombinant MMP-3 (purified in Assignee's laboratory following standard cloning and purification techniques).
The following fluorogenic, methoxycoumarin-containing polypeptide substrate (I) was used in the MMP inhibition assays: MCA-ArgProLeuGlyLeuDpaAlaArgGluArgNH2 (I) “MCA” is 7-methoxycoumarin-4-yl acetyl. Substrate (I) was prepared Assignee's laboratory. In the absence of MMP inhibitory activity, the substrate is cleaved at the Gly-Leu peptide bond. This cleavage separates the highly fluorogenic peptide from the 2,4-dinitrophenyl quencher, thus resulting in increase of fluorescent intensity.
The stock solutions of the assayed compounds and salts were prepared in […] (DMSO). These stock solutions were diluted in Buffer A (100 mM Tris-HCl, 100 mM NaCl, 10 mM CaCl2, 0.05% polyoxyethylene 23 lauryl ether, pH 7.5) to obtain solutions with different compound concentrations, i.e., assay solutions with different concentrations of the assayed […] compound. The experiment controls contained the same amount of Buffer A/DMSO as the assayed sample, but contained none of the tested compound or salt.
The assays from which the Ki determinations were made were performed as follows. The assayed compound samples were incubated in separate wells of untreated white polystyrene plates (Nunc Nalgene International, Rochester, N.Y.), and analyzed on a Tecan SpectraFlour Plus plate reader. The excitation wavelength was 330 nm, and the emission wavelength—420 nm. All samples (assayed compounds and controls) were incubated in separate plate wells at room temperature for 1 hr in the presence of 4 μM of MMP substrate (I). In the absence of MMP inhibitory activity, substrate (I) was cleaved at the Gly-Leu bond resulting in an increase of relative fluorescence. Inhibition was observed as a reduced rate of this increase in relative fluorescence. […] This protocol is a modification of method by Knight et al., FEBS Lett., 296(3), 263-266 (1992). Apparent inhibitory constants were determined by non-linear regression of reaction velocity as a function of inhibitor and enzyme concentration using Morrison's equation, as described by Kuzmic, Anal. Biochem. 286, 45-50 (2000). […]

Compound	Ki (Table 1)	Ki (Table 2)
CCOCCOc1ccc(-c2ccc(S(=O)(=O)C3(C(=O)NO)CCOCC3)cc2)cc1 [Example 37]	0.028 nM	
O=C(NO)C1(S(=O)(=O)c2ccc(-c3ccc(OC(F)(F)C(F)F)cc3)cc2)CCN(C2CC2)CC1 [Example 40]	0.066 nM	
O=C(NO)C1(S(=O)(=O)c2ccc(-c3ccc(CCC(F)(F)C(F)(F)F)cc3)cc2)CCOCC1 [Example 41]	0.224 nM	
COCCN1CCC(C(=O)NO)(S(=O)(=O)c2ccc(-c3ccc(CCCC(F)(F)F)cc3)cc2)CC1 [Example 43]	0.06 nM	
O=C(NO)C1(S(=O)(=O)c2ccc(-c3ccc(CCCC(F)(F)F)cc3)cc2)CCN(C2CC2)CC1 [Example 44]	0.13 nM	
O=C(NO)C1(S(=O)(=O)c2ccc(-c3ccc(CCC(F)(F)C(F)(F)F)cc3)cc2)CCN(C2CC2)CC1 [Example 45]	0.46 nM	
COCCN1CCC(C(=O)NO)(S(=O)(=O)c2ccc(-c3ccc(CCC(F)(F)C(F)(F)F)cc3)cc2)CC1 [Example 46]	0.11 nM	
COCCC(C(=O)NO)S(=O)(=O)c1ccc(-c2ccc(CCCC(F)(F)F)cc2)cc1 (centres unmarked) [Example 47]	0.4 nM	
CC(C)(C)N1CCC(C(=O)NO)(S(=O)(=O)c2ccc(-c3ccc(CCCC(F)(F)F)cc3)cc2)CC1 [Example 48]	0.221 nM	
O=C(NO)C1(S(=O)(=O)c2ccc(-c3cnc(CCC4CC4)cn3)cc2)CCOCC1 [Example 49]	0.71 nM	
CCN1CCC(C(=O)NO)(S(=O)(=O)c2ccc(-c3ccc(CCC(F)(F)C(F)(F)F)cn3)cc2)CC1 [Example 52]	0.07 nM	
O=C(NO)C1(S(=O)(=O)c2ccc(-c3cnc(CCC(F)(F)C(F)(F)F)cn3)cc2)CCOCC1 [Example 55]	0.222 nM	
O=C(NO)C1(S(=O)(=O)c2ccc(-c3ccc(CCCC(F)F)cc3)cc2)CCOCC1 [Example 57]	0.04 nM	
CC(F)(F)CCc1cnc(-c2ccc(S(=O)(=O)C3(C(=O)NO)CCOCC3)cc2)cn1 [Example 60]	0.212 nM	
CCN1CCC(C(=O)NO)(S(=O)(=O)c2ccc(-c3ccc(CCC(C)(F)F)cc3)cc2)CC1 [Example 61]	0.02 nM	
O=C(NO)C1(S(=O)(=O)c2ccc(-c3cnc(CCC(F)(F)F)cn3)cc2)CCOCC1 [Example 62]	0.45 nM	
COCCN1CCC(C(=O)NO)(S(=O)(=O)c2ccc(-c3ccc(CCC(C)(F)F)cc3)cc2)CC1 [Example 63]	0.01 nM	
CCN1CCC(C(=O)NO)(S(=O)(=O)c2ccc(-c3cnc(CCC(C)(F)F)cn3)cc2)CC1 [Example 64]	0.296 nM	
O=C(NO)C1(S(=O)(=O)c2ccc(-c3ccc(OC(F)(F)C(F)F)cc3)cc2)CCOCC1 [Example 68]	0.0509 nM	

Compound	Ki (Table 1)	Ki (Table 2)
O=C(NO)C1(S(=O)(=O)c2ccc(-c3ccc(CCCC(F)(F)F)cn3)cc2)CCOCC1 [Example 69]	0.082 nM	
CCCCOc1cnc(-c2ccc(S(=O)(=O)C3(C(=O)NO)CCOCC3)cc2)cn1 [Example 73]		0.028 nM
O=C(NO)C1(S(=O)(=O)c2ccc(-c3ccc(OCCCC(F)(F)F)cc3)cc2)CCOCC1 [Example 74]		0.102 nM
CCCCCc1ccc(-c2ccc(S(=O)(=O)C3(C(=O)NO)CCOCC3)cc2)cc1 [Example 75]		0.299 nM
CC(=O)Nc1cnc(-c2ccc(S(=O)(=O)C3(C(=O)NO)CCOCC3)cc2)cn1 [Example 76]		31.7 nM
CCN1CCC(C(=O)NO)(S(=O)(=O)c2ccc(-c3ccc(OCCCCO)cc3)cc2)CC1 [Example 118]		0.012 nM
CCCCOc1ccc(-c2ccc(S(=O)(=O)C3(C(=O)NO)CCN(CCOC)CC3)cc2)cc1 [Example 119]		0.018 nM
CCCCOc1ccc(-c2ccc(S(=O)(=O)C3(C(=O)NO)CCN(C4CC4)CC3)cc2)cc1 [Example 120]		0.082 nM
O=C(NO)C1(S(=O)(=O)c2ccc(-c3ncccn3)cc2)CCOCC1 [Example 121]		4.86 nM
CCc1cnc(-c2ccc(S(=O)(=O)C3(C(=O)NO)CCOCC3)cc2)nc1 [Example 122]		1.56 nM
O=C(NO)C1(S(=O)(=O)c2ccc(-c3ccc(-n4ccnc4)cc3)cc2)CCOCC1 [Example 127]		0.03 nM
O=C(NO)C1(S(=O)(=O)c2ccc(-c3ccc(CCC4CCCCC4)cn3)cc2)CCOCC1 [Example 129]		0.383 nM
O=C(NO)C1(S(=O)(=O)c2ccc(-c3cscc3-c3ccc(F)cc3)cc2)CCOCC1 [Example 132]		71 nM
O=C(NO)C1(S(=O)(=O)c2ccc(-c3ccc(CCC(F)(C(F)(F)F)C(F)(F)F)cn3)cc2)CCOCC1 [Example 133]		2.06 nM
O=C(NO)C1(S(=O)(=O)c2ccc(-c3noc(-c4ccc(F)cc4)n3)cc2)CCOCC1 [Example 134]		1.76 nM
CCN1CCC(C(=O)NO)(S(=O)(=O)c2ccc(-c3ccc(Oc4ccccc4)cc3)cc2)CC1 [Example 135]		0.742 nM
CCN1CCC(C(=O)NO)(S(=O)(=O)c2ccc(-c3ccc(-c4ccncc4)cc3)cc2)CC1 [Example 136]		0.021 nM
O=C(NO)C1(S(=O)(=O)c2ccc(-c3ncc(CCC(F)(F)C(F)(F)F)cn3)cc2)CCOCC1 [Example 137]		0.17 nM

Second part, the molecule after the results:

Ki (Table 1)	Ki (Table 2)	Compound
0.0403 nM		O=C(NO)C1(S(=O)(=O)c2ccc(-c3ccc(CCC(F)(F)C(F)(F)F)cn3)cc2)CCOCC1 [Example 36]
0.02 nM		O=C(NO)C1(S(=O)(=O)c2ccc(-c3ccc(OC(F)(F)C(F)F)cc3)cc2)CCN(CCl)CC1 [Example 38]
0.011 nM		COCCN1CCC(C(=O)NO)(S(=O)(=O)c2ccc(-c3ccc(OC(F)(F)C(F)F)cc3)cc2)CC1 [Example 39]
0.072 nM		O=C(NO)C1(S(=O)(=O)c2ccc(-c3ccc(CCCC(F)(F)F)cc3)cc2)CCOCC1 [Example 42]
0.12 nM		O=C(NO)C1(S(=O)(=O)c2ccc(-c3ccc(CCC(F)(F)C(F)(F)F)cn3)cc2)CCN(C2CC2)CC1 [Example 50]
0.05 nM		O=C(NO)C1(S(=O)(=O)c2ccc(-c3ccc(CCCC(F)(F)F)cn3)cc2)CCN(C2CC2)CC1 [Example 51]
0.06 nM		CCN1CCC(C(=O)NO)(S(=O)(=O)c2ccc(-c3ccc(CCCC(F)(F)F)cn3)cc2)CC1 [Example 53]
0.3 nM		COCCN1CCC(C(=O)NO)(S(=O)(=O)c2ccc(-c3ccc(CCCC(F)(F)F)cn3)cc2)CC1 [Example 54]
0.45 nM		O=C(NO)C1(S(=O)(=O)c2ccc(-c3cnc(CCCC(F)(F)F)cn3)cc2)CCOCC1 [Example 58]
0.05 nM		CC(F)(F)CCc1ccc(-c2ccc(S(=O)(=O)C3(C(=O)NO)CCN(C4CC4)CC3)cc2)cc1 [Example 59]
0.27 nM		COCCN1CCC(C(=O)NO)(S(=O)(=O)c2ccc(-c3cnc(CCC(C)(F)F)cn3)cc2)CC1 [Example 65]
0.23 nM		CC(F)(F)CCc1cnc(-c2ccc(S(=O)(=O)C3(C(=O)NO)CCN(C4CC4)CC3)cc2)cn1 [Example 66]
0.07 nM		COCCN1CCC(C(=O)NO)(S(=O)(=O)c2ccc(-c3ccc(CCC(C)(F)F)cn3)cc2)CC1 [Example 67]
	3.3 nM	CCc1csc(Nc2ccc(-c3ccc(S(=O)(=O)C4(C(=O)NO)CCOCC4)cc3)cc2)n1 [Example 124]
	0.048 nM	O=C(NO)C1(S(=O)(=O)c2ccc(-c3ccc(-n4cncn4)cc3)cc2)CCOCC1 [Example 126]
	3.4 nM	O=C(NO)C1(S(=O)(=O)c2ccc(-c3cnc(NCC4CC4)cn3)cc2)CCOCC1 [Example 128]
	1.27 nM	CC(C)(C)CCNc1cnc(-c2ccc(S(=O)(=O)C3(C(=O)NO)CCOCC3)cc2)cn1 [Example 130]
	2.04 nM	O=C(NO)C1(S(=O)(=O)c2ccc(-c3cnc(N4CCCCC4)cn3)cc2)CCOCC1 [Example 131]
	0.571 nM	O=C(NO)C1(S(=O)(=O)c2ccc(-c3cnc(N4CCCC4)cn3)cc2)CCOCC1 [Example 138]
